# The source made the active and inactive calls. The calls are words filed in the database; no cut-off is given here.
# How the values were obtained:
# [1] = molecular target: Replicase polyprotein 1ab (Severe acute respiratory syndrome coronavirus 2) (UniProt P0DTD1); assay: Inhibition of recombinant SARS-CoV-2 main protease expressed in Escherichia coli BL21 DE3 expression cells using MCA-AVLQSGFR-Lys(Dnp)-Lys-NH2 as substrate at 10 uM incubated for 10 to 15 mins followed by substrate addition by FRET assay relative to control; conditions: time 10-15 min
# SARS-CoV-2 [2] = assay: Antiviral activity against wild type SARS-CoV-2 infected in human Calu-3 assessed as reduction in nucleocapsid protein level at 10 uM preincubated with cells for 2 hrs followed by viral infection for 1 hr and measured after 24 hrs by Western blot analysis; type: functional, organism-based; conditions: Severe acute respiratory syndrome coronavirus 2, time 27.0 hrs
# SARS-CoV-2 [3] = assay: Antiviral activity against wild type SARS-CoV-2 infected in human HeLa cells expressing ACE2 assessed as reduction in viral spike protein level preincubated with cells for 2 hrs followed by viral infection for 1 hr and measured after 24 hrs by RT-qPCR analysis; type: functional, organism-based; conditions: Severe acute respiratory syndrome coronavirus 2, HeLa
# [4] = molecular target: T1, Replicase polyprotein 1ab (Severe acute respiratory syndrome coronavirus 2, UniProt P0DTD1); assay: Inhibition of recombinant SARS-CoV-2 main protease expressed in Escherichia coli BL21 DE3 expression cells using MCA-AVLQSGFR-Lys(Dnp)-Lys-NH2 as substrate incubated for 10 to 15 mins followed by substrate addition by FRET assay
# [5] = molecular target: T1, Replicase polyprotein 1ab; assay: Binding affinity to recombinant SARS-CoV-2 main protease expressed in Escherichia coli BL21 DE3 expression cells assessed as dissociation constant measured for 60 secs by SPR analysis
# SARS-CoV-2 [6] = assay: Antiviral activity against wild type SARS-CoV-2 infected in human HeLa cells expressing ACE2 assessed as reduction in viral spike protein level at 10 uM preincubated with cells for 2 hrs followed by viral infection for 1 hr and measured after 24 hrs by Western blot analysis; type: functional, organism-based; conditions: Severe acute respiratory syndrome coronavirus 2, time 27.0 hrs
# SARS-CoV-2 [7] = assay: Antiviral activity against wild type SARS-CoV-2 infected in human HeLa cells expressing ACE2 assessed as reduction in nucleocapsid protein level at 10 uM preincubated with cells for 2 hrs followed by viral infection for 1 hr and measured after 24 hrs by Western blot analysis; type: functional, organism-based; conditions: Severe acute respiratory syndrome coronavirus 2, time 27.0 hrs
# [8] = Solubility of the compound in water incubated for 24 hrs by HPLC analysis; type: physicochemical
# [9] = n-Octanol/water partition coefficient, logP of the compound incubated for 12 hrs by HPLC analysis; type: physicochemical
# [10] = Stability of compound in stimulated gastric fluid assessed as parent compound remaining measured upto 24 hrs by HPLC analysis; type: ADME; conditions: simulated gastric fluid, read-out: Stability
# [11] = Stability of compound in stimulated intestinal fluid assessed as parent compound remaining measured upto 24 hrs by HPLC analysis; type: ADME; conditions: simulated intestinal fluid, read-out: Stability
# SARS-CoV-2 [12] = assay: Antiviral activity against wild type SARS-CoV-2 infected in human Calu-3 assessed as reduction in viral spike protein level at 10 uM preincubated with cells for 2 hrs followed by viral infection for 1 hr and measured after 24 hrs by RT-qPCR analysis; type: functional, organism-based; conditions: Severe acute respiratory syndrome coronavirus 2, time 27.0 hrs
# SARS-CoV-2 [13] = assay: Antiviral activity against wild type SARS-CoV-2 infected in human Calu-3 cells assessed as reduction in nucleocapsid protein mRNA level at 10 uM preincubated with cells for 2 hrs followed by viral infection for 1 hr and measured after 24 hrs by RT-qPCR analysis; type: functional, organism-based; conditions: Severe acute respiratory syndrome coronavirus 2, time 27.0 hrs
# SARS-CoV-2 [14] = assay: Antiviral activity against wild type SARS-CoV-2 infected in human Calu-3 cells assessed as reduction in viral spike protein level at 10 uM preincubated with cells for 2 hrs followed by viral infection for 1 hr and measured after 24 hrs by Western blot analysis; type: functional, organism-based; conditions: Severe acute respiratory syndrome coronavirus 2, time 27.0 hrs
# [15] = molecular target: T1, Replicase polyprotein 1ab; assay: Non-covalent inhibition of SARS-CoV-2 main protease incubated for 10 mins followed by substrate addition by FRET assay
# [16] = molecular target: T1, Replicase polyprotein 1ab; assay: Non-covalent inhibition of SARS-CoV-2 main protease incubated for 30 mins followed by substrate addition by FRET assay
# [17] = molecular target: T1, Replicase polyprotein 1ab; assay: Non-covalent inhibition of SARS-CoV-2 main protease incubated for 50 mins followed by substrate addition by FRET assay
# SARS-CoV-2 [18] = assay: Antiviral activity against wild type SARS-CoV-2 infected in human HeLa cells expressing ACE2 assessed as reduction in nucleocapsid protein mRNA level preincubated with cells for 2 hrs followed by viral infection for 1 hr and measured after 24 hrs by RT-qPCR analysis; type: functional, organism-based; conditions: Severe acute respiratory syndrome coronavirus 2, HeLa
# SARS-CoV-2 [19] = assay: Antiviral activity against SARS-CoV-2 infected in African green monkey Vero E6 cells assessed as reduction in viral plaque number pre-infected with virus followed by cell addition for 1 hr and measured after 24 hrs by plaque assay; type: functional, organism-based; conditions: Severe acute respiratory syndrome coronavirus 2
# SARS-CoV-2 [20] = assay: Antiviral activity against SARS-CoV-2 infected in African green monkey Vero E6 cells assessed as reduction in viral plaque size pre-infected with virus followed by cell addition for 1 hr and measured after 24 hrs by plaque assay; type: functional, organism-based; conditions: Severe acute respiratory syndrome coronavirus 2
# [21] = Metabolic stability in mouse liver microsomes assessed as parent compound remaining at 10 mg/ml measured after 120 mins by HPLC analysis; type: ADME, Microsome; conditions: read-out: Stability
# [22] = Metabolic stability in mouse liver microsomes assessed as half life at 10 mg/ml preincubated for 5 mins followed by NADPH addition and measured upto 120 mins by HPLC analysis; type: ADME, Microsome; conditions: time < 125 min
# [23] = Metabolic stability in mouse liver microsomes assessed as intrinsic clearance at 10 mg/ml preincubated for 5 mins followed by NADPH addition and measured upto 120 mins by HPLC analysis; type: ADME, Microsome; conditions: time < 125 min, read-out: CLH
structure (smiles),measurement,setting,value
CN1C(=O)/C(=C2/C(=O)Nc3ccccc32)c2cc([N+](=O)[O-])ccc21,inhibition,[1],32.8%
same,Activity,SARS-CoV-2 [2],Active
CC(C)(C)[C@H](NC(=O)C(F)(F)F)C(=O)N1C[C@H]2[C@@H]([C@H]1C(=O)N[C@H](C#N)C[C@@H]1CCNC1=O)C2(C)C,EC50,SARS-CoV-2 [3],16.9 µM
O=C(O)CCCCCCCN1C(=O)/C(=C2/C(=O)Nc3ccccc32)c2ccccc21,inhibition,[1],73.8%
CN1C(=O)/C(=C2/C(=O)N(CCN3CCCC3)c3ccccc32)c2ccccc21.Cl,IC50,[4],1.15 µM
same,inhibition,[1],86.5%
same,Kd,[5],0.7 µM
same,Activity,SARS-CoV-2 [6],inactive
same,Activity,SARS-CoV-2 [7],inactive
same,solubility at 24 h,[8],17300 µg/mL
same,logP at 12 h,[9],0.7
same,remaining at 24 h,[10],95.2%
same,remaining at 24 h,[11],85.3%
O=C(O)CCCCCCCN1C(=O)/C(=C2/C(=O)Nc3ccccc32)c2cc(Br)ccc21,IC50,[4],1.21 µM
same,inhibition,[1],97.8%
same,Activity,SARS-CoV-2 [12],Active
same,Activity,SARS-CoV-2 [13],Active
same,Activity,SARS-CoV-2 [14],Active
same,Activity,SARS-CoV-2 [2],Active
CN1C(=O)C2(CC=CCC23C(=O)Nc2ccc(Br)cc23)c2ccccc21 (stereo not given),inhibition,[1],6%
CN1C(=O)/C(=C2/C(=O)Nc3ccc(Br)cc32)c2ccccc21,inhibition,[1],94.5%
O=C1Nc2ccccc2/C1=C1\C(=O)Nc2ccccc21 [ISOINDIGO],IC50,[4],1.2 µM
same,inhibition,[1],85.3%
O=C(O)CCCCCN1C(=O)/C(=C2/C(=O)Nc3ccccc32)c2ccccc21,inhibition,[1],59.8%
O=C(O)CCCCCCCCCN1C(=O)/C(=C2/C(=O)Nc3ccccc32)c2ccccc21,inhibition,[1],71.2%
O=C1Nc2ccccc2/C1=C1\C(=O)N(CCBr)c2ccccc21,inhibition,[1],97.4%
CN1C(=O)/C(=C2/C(=O)Nc3ccccc32)c2cc(O)ccc21,inhibition,[1],84.2%
same,Activity,SARS-CoV-2 [12],Active
same,Activity,SARS-CoV-2 [13],Active
same,Activity,SARS-CoV-2 [14],Active
CN1C(=O)/C(=C2/C(=O)Nc3ccccc32)c2ccccc21 [MEISOINDIGO],IC50,[4],15.6 µM
same,inhibition,[1],50.6%
CCOC(=O)CCCCCCCN1C(=O)/C(=C2/C(=O)Nc3ccccc32)c2cc(Br)ccc21,inhibition,[1],25.2%
CN1C(=O)/C(=C2/C(=O)N(CCCN)c3ccc(Br)cc32)c2ccccc21.Cl,IC50,[4],1.35 µM
same,inhibition,[1],90.5%
same,Kd,[5],16.8 µM
same,IC50,[15],1.3 µM
same,IC50,[16],1.15 µM
same,IC50,[17],1.34 µM
same,EC50,SARS-CoV-2 [3],2.74 µM
same,EC50,SARS-CoV-2 [18],2.66 µM
same,Activity,SARS-CoV-2 [6],Active
same,Activity,SARS-CoV-2 [7],Active
same,Activity,SARS-CoV-2 [19],Active
same,Activity,SARS-CoV-2 [20],Active
same,solubility at 24 h,[8],2490 µg/mL
same,logP at 12 h,[9],0.29
same,remaining at 24 h,[10],95.3%
same,remaining at 24 h,[11],73.6%
same,remaining at 2 h,[21],84%
same,half-life,[22],8.25 h
same,microsomal CLint,[23],1.4 µL/min/mg
CN1CCN(CCN2C(=O)/C(=C3/C(=O)Nc4ccccc43)c3ccccc32)CC1,inhibition,[1],91.3%
O=C1Nc2ccccc2/C1=C1\C(=O)N(CCN2CCOCC2)c2ccccc21,inhibition,[1],83.9%
O=C(O)CCCCCCCCCN1C(=O)/C(=C2/C(=O)Nc3ccccc32)c2cc(Br)ccc21,inhibition,[1],76.8%
CCOC(=O)CCCCCCCCCN1C(=O)/C(=C2/C(=O)Nc3ccccc32)c2cc(Br)ccc21,inhibition,[1],21.2%
COc1ccc2c(c1)/C(=C1\C(=O)Nc3ccccc31)C(=O)N2CCCCCCCC(=O)O,IC50,[4],1.61 µM
same,inhibition,[1],89.1%
CN1C(=O)/C(=C2/C(=O)N(C)c3ccccc32)c2ccccc21,inhibition,[1],25.7%
CN1C(=O)/C(=C2/C(=O)Nc3ccccc32)c2cc(Br)ccc21,inhibition,[1],32.4%
COc1ccc2c(c1)/C(=C1\C(=O)N(C)c3ccccc31)C(=O)N2,inhibition,[1],70.7%
CN1C(=O)/C(=C2/C(=O)Nc3ccccc32)c2cc(F)ccc21,inhibition,[1],82.5%
COc1ccc2c(c1)/C(=C1\C(=O)Nc3ccccc31)C(=O)N2C,inhibition,[1],91.4%
COc1ccc2c(c1)C1(CC=CCC13C(=O)Nc1ccccc13)C(=O)N2C (stereo not given),inhibition,[1],4.1%
O=C(O)CCCCCCCN1C(=O)/C(=C2/C(=O)Nc3ccccc32)c2cc(O)ccc21,inhibition,[1],63.7%
CN1C(=O)/C(=C2/C(=O)N(CCN)c3ccccc32)c2cc(Br)ccc21.Cl,IC50,[4],1.09 µM
same,inhibition,[1],85.8%
same,Kd,[5],1.27 µM
same,IC50,[15],1.96 µM
same,IC50,[16],1.52 µM
same,IC50,[17],1.49 µM
same,EC50,SARS-CoV-2 [3],1.76 µM
same,EC50,SARS-CoV-2 [18],2.03 µM
same,Activity,SARS-CoV-2 [6],Active
same,Activity,SARS-CoV-2 [7],Active
same,Activity,SARS-CoV-2 [19],Active
same,Activity,SARS-CoV-2 [20],Active
same,solubility at 24 h,[8],3810 µg/mL
same,logP at 12 h,[9],0.59
same,remaining at 24 h,[10],95%
same,remaining at 24 h,[11],78%
CN1C(=O)C2(CC=CCC23C(=O)Nc2ccccc23)c2ccccc21 (stereo not given),inhibition,[1],11.9%
O=C(O)CCCCCCCCCCCN1C(=O)/C(=C2/C(=O)Nc3ccccc32)c2ccccc21,inhibition,[1],72.9%
CN1C(=O)/C(=C2/C(=O)Nc3ccccc32)c2cc(Cl)ccc21,inhibition,[1],40.8%
CN1C(=O)/C(=C2/C(=O)N(CCNC(=O)OC(C)(C)C)c3ccccc32)c2ccccc21,inhibition,[1],52.6%
